According to US8182794B2, “Sunless tanning products and processes” (Concept Laboratories, priority 2003, dated 2012):
Entries after “also recorded” stand apart in the source; their conditions may differ.

System: human skin
Assay: Colorimeter (Minolta CR-10) L* a* b* readings of sunless tan on forearm skin
Format: in vivo
Conditions: 5% additive with 5% DHA and 5% MSM; Table 1 series
Experimental: An equal amount of each formula solution (approximately 150 mg.) from Table 1 was applied to 2″×2″ adjacent sections of forearm, allowed to dry and covered with clothing for the duration of the testing. The application areas were visibly the same color prior to treatment with the solutions and this was confirmed via calorimeter readings. Readings were typically made 24-48 hours post application of the test solutions. Three calorimeter readings were made of each treatment area with a Minolta CR-10 adapted for human skin readings and the readings were averaged. All eight formulas shown in Table 1 were evaluated on several individuals with Fitzpatrick skin types I-III. Although the absolute values for the tanning responses differed between individuals, the relative differences between formulations in terms of tanning response were the same. Typical results of the testing of one subject were recorded in average L* a* b* color values and are shown in Table 2 along with baseline skin color. […]
The results shown in Table 12 were confirmed by several repeat experiments conducted on several relatively light-skin individuals (Fitzpatrick Type I-III). The data are based on calculation of the average increase in skin darkening based on skin color changes measured by the colorimeter “L” or light-dark value [(Δ L)]; the average increase in skin hue intensity measured simultaneously by both the colorimeter “a*” or red value and the colorimeter “b*” or yellow value (Δ√a^2+b^2); and, the average increase in total tan which adds the changes in darkness and hue increases [(Δ L)+Δ√a^2+b^2].

| Compound | effect of additive on tanning response of DHA and MSM |
| --- | --- |
| CC(O)CO (stereo not drawn) [propylene glycol] | darker tanning responses |
| OCCCCO [butylene glycol] | darker tanning responses; also recorded: significantly increase |
| CCCC(O)CO (stereo not drawn) [pentylene glycol, 1,2-pentanediol] | darker tanning responses; also recorded: significantly increase |
